Experiment [1] concerns Co-cultures of Caco-2 and HT29-MTX-E12 cells. Put plainly: Barrier integrity, leaky gut model, apical stressor Rhamnolipids. The class given is cell-based. To be noted: vs corresponding control; for Lucifer yellow, apical induction of leaky gut cellular model: 48 h fermentation samples; for TEER, apical induction of leaky gut cellular model: 48 h minus 0 h fermentation samples.
Method: (§1) Since ethanol is known to have antimicrobial effects, two blanks for each type of stock solution were included. As a source of the microbial community, a freshly prepared fecal suspension from the selected donor was added to the reactors. […] All tests, except the blanks, were performed in single repetition, resulting in 40 independent incubations, as specified in Table 1. Incubation conditions of the pre-screening experiment and the final experiment were 48 h at 37° C., under shaking (90 rpm) and anaerobic conditions. […] Effluent samples were collected from each fermentation flask before (0 h fermentation) and after fermentation (48 h fermentation), sterilized by filtering through 0.22 μm filters and used for short chain fatty acids (SCFA), quantification of immunological biomarkers and in vitro analysis in cell culture systems.
(§2) Co-cultures of Caco-2 and HT29-MTX-E12 cells were used to assess the protective effect of the supernatants before (0 h) and after fermentation (48 h) for both sets of in vitro experiments above.
(§3) CaCo-2 ECACC 86010202 and HT29-MTX-E12 ECACC 12040401 cells (both from European Collection of Cell Cultures, Salisbury, UK) were both cultured at 37° C., in atmosphere of 5% CO2 in DMEM medium supplemented with 4.5 g/L D-Glucose, 4 mM L-Glutamine, 1 mM Sodium Pyruvate, 1% MEM Non-Essential Amino Acids, 50 μg/mL Gentamicin (Life Technologies Europe B.V., Zug, Switzerland) and 10% heat-inactivated FBS (Sigma-Aldrich, Buchs, Switzerland). Sub-confluent cells were trypsinized using 0.25% Trypsin/EDTA (Life Technologies Europe B.V., Zug, Switzerland) and passaged at a ratio of 1:5-1:10 twice a week. Cells between passages 55 and 85 were used for this study.
(§4) Cells were seeded at a density of 20000 cells/well in a 7:3 ratio (Caco-2:HT29-MTX-E12) in Corning HTS Transwell-24 system PET membranes, 0.4 μM pore size, cell growth area 0.33 cm2/well (Corning BV, Amsterdam, Netherlands) and cultured as described above. Media was changed every second to third day.
For both sets of in vitro experiments, the integrity of cell monolayers after the stressor test was evaluated by both TEER values and by measuring the transport of Lucifer yellow from apical to basolateral compartments (Leaky gut model). A prewarmed HBSS transport buffer composed of Hank's Balanced Salt Solution pH 7.4 with Ca2+ and Mg2+, containing 5.5 mM D-(+)-glucose, Sodium Bicarbonate, and supplemented with 4 mM L-glutamine, 20 mM HEPES (Life Technologies Europe B.V., Zug, Switzerland) was used for all permeability experiments. The inserts were rinsed twice with HBSS using a reservoir tray, 100 μl HBSS were then added to the apical site of the inserts and subsequently moved to new wells with fresh HBSS and allowed to equilibrate at 37° C. for 60 min in the incubator followed by TEER measurement to obtain baseline resistance readings.
Lucifer Yellow CH dilithium salt (Sigma-Aldrich, Buchs, Switzerland) was dissolved in HBSS at a final concentration of 100 μg/ml. Basolateral stressor EtOH (Merck, KgaA, Darmstadt, Germany) was diluted to 5% in HBSS. Apical Stressor Rhamnolipids R90 (AGAE Technologies, Corvallis, USA) was dissolved in HBSS containing Lucifer Yellow at a final concentration of 350 μg/ml. All solutions were prepared freshly each time.
The HBSS transport buffer from the basolateral chamber was aspirated first, then the HBSS from the apical chamber and replaced with Lucifer yellow solution. For the apical stressor test, Lucifer yellow solution containing 350 μg/ml Rhamnolipids or Lucifer yellow solution without stressor for the control wells was loaded into the apical compartment, blank HBSS was subsequently added to the basolateral chamber.

For experiment [2], the system named is fecal suspension from the selected donor. Briefly: Intestinal batch fermentation, SCFA production (first set). The class given is cell-based, human. To be noted: after 48 h fermentation, vs corresponding control. The gist of the method: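 Test ingredients were added to modified nutritional medium inoculated with fresh donor fecal suspension. Incubation ran 48 h at 37° C, 90 rpm, anaerobic, with ethanol blanks and single repeats. SCFA were sampled at 0, 6, 24 and 48 h, diethyl ether-extracted and quantified by GC-FID against a 2-methyl hexanoic acid internal standard; molar sums were taken as unbranched, branched and total SCFA.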

Experiment [3] deals with HT29 cells. Put plainly: HT29 cell culture, quantification of immunological biomarkers. As to conditions: effluent from 24 h fermentation, vs corresponding control. The experiment is classed as cell-based.
In experiment [4] the test system is Co-cultures of Caco-2 and HT29-MTX-E12 cells. Put plainly: Barrier integrity, leaky gut model, basolateral stressor 5% EtOH. The class given is cell-based. To be noted: 0.2× dose, vs corresponding control; for Lucifer yellow, basolateral induction of leaky gut cellular model: 48 h fermentation samples; for TEER, basolateral induction of leaky gut cellular model: 48 h minus 0 h fermentation samples.
Method: as §1, §2, §3, §4
For both sets of in vitro experiments, the integrity of cell monolayers after the stressor test was evaluated by both TEER values and by measuring the transport of Lucifer yellow from apical to basolateral compartments (Leaky gut model). […] The inserts were rinsed twice with HBSS using a reservoir tray, 100 μl HBSS were then added to the apical site of the inserts and subsequently moved to new wells with fresh HBSS and allowed to equilibrate at 37° C. for 60 min in the incubator followed by TEER measurement to obtain baseline resistance readings. […]

For experiment [5] the test system is unchanged. Put plainly: Barrier integrity (TEER), healthy gut model. As to conditions: 48 h minus 0 h fermentation samples, vs corresponding control. The experiment is classed as cell-based.
Method: as §2, §3, §4
For both sets of in vitro experiments, after cells being 13 days in culture, initial transepithelial electrical resistance (TEER) readings were obtained using an EVOM2 Voltohmmeter (EVOM, World Precision Instruments, Berlin) equipped with STX100 Electrodes. TEER values correlate with the tightness of the confluent monolayer (Srinivasan et al. 2015).
The background TEER (insert) was subtracted from total TEER (cell monolayer plus insert) to yield the monolayer resistance and then normalized to surface area by multiplying with the area of the insert (Srinivasan et al. 2015). The integrity of the monolayer was determined at basal level by measuring TEER. A TEER of 300 Ωcm2 was regarded as a tight monolayer (see results section). Afterwards, the cells were treated with sterile filtered fermentation supernatants or fermentation medium as a control (diluted 1:20 in growth media). After 24 h incubation the resistance across each cell monolayer was measured again and the percentage change in TEER compared to initial TEER for each insert was calculated to represent a healthy gut model. All TEER measurements were done by placing the plates containing the inserts on a 37° C. warming plate and were performed in the same duration.

For the compound `Cc1cc2nc3c(=O)[nH]c(=O)nc-3n(C[C@H](O)[C@H](O)[C@H](O)CO)c2cc1C` [Vitamin B2, riboflavin], in experiment [1] (0.2× dose), the “Lucifer yellow, apical induction of leaky gut cellular model” value (“Lucifer yellow, apical induction” for short) is recorded as “decrease Lucifer yellow” and the “TEER, apical induction of leaky gut cellular model” value (“TEER, apical induction” for short) is recorded as “increase TEER”. Also, the butyrate production entry in experiment [2] (5× dose) was “increase butyrate production”. In experiment [3] (1× dose), the “GROa-CXCL1 production by HT29 cells” value is on record as “increase GROa-CXCL1 production” and the “IL-8 production by HT29 cells” value is given as “increase IL-8 production”. Further, in experiment [3] (5× dose), the “GROa-CXCL1 production by HT29 cells” value is on record as “increase GROa-CXCL1 production” and the “IL-8 production by HT29 cells” value is “increase IL-8 production”. Also, in experiment [4], the “Lucifer yellow, basolateral induction of leaky gut cellular model” value was “decrease Lucifer yellow” and the “TEER, basolateral induction of leaky gut cellular model” value is recorded as “increase TEER”.
As for Vitamin E, the “TEER, apical induction” value in experiment [1] (0.2× dose) is “increase TEER”. Besides, in experiment [1] (1× dose), the “Lucifer yellow, apical induction” value is recorded as “decrease Lucifer yellow” and the “TEER, apical induction” value is recorded as “increase TEER”. Moreover, in experiment [1] (5× dose), the “Lucifer yellow, apical induction” value is “decrease Lucifer yellow” and the “TEER, apical induction” value is given as “increase TEER”. For the same compound, the “TEER, healthy gut cellular model” value in experiment [5] (1× dose) is recorded as “increase TEER”. The “TEER, healthy gut cellular model” value in experiment [5] (5× dose) is “increase TEER”. For the same compound, in experiment [2] (1× dose), the acetate production entry is on record as “increase acetate production”, the propionate production entry is listed as “increase propionate production” and the “total SCFAs production” value was “increase total SCFAs production”. In experiment [2] (5× dose), the acetate production result is listed as “increase acetate production”. In experiment [3] (0.2× dose), the “IL-8 production by HT29 cells” value is recorded as “increase IL-8 production” and the “MIP3A-CCL20 production by HT29 cells” value is “increase MIP3A-CCL20 production”. In experiment [3] (1× dose), the “IL-8 production by HT29 cells” value is listed as “increase IL-8 production” and the “MIP3A-CCL20 production by HT29 cells” value is reported as “increase MIP3A-CCL20 production”. Besides, in experiment [3] (5× dose), the “GROa-CXCL1 production by HT29 cells” value was “increase GROa-CXCL1 production”, the “IL-8 production by HT29 cells” value was “increase IL-8 production” and the “MIP3A-CCL20 production by HT29 cells” value is “increase MIP3A-CCL20 production”. Further, in experiment [4], the “Lucifer yellow, basolateral induction of leaky gut cellular model” value was “decrease Lucifer yellow” and the “TEER, basolateral induction of leaky gut cellular model” value is reported as “increase TEER”.

Source of the values: patent US12508280B2, “Formulations for improving gut health” (DSM IP ASSETS B.V., priority 2018, dated 2025).
